Eight compounds from US12516070B2, “Fused ring derivatives and use thereof in pharmacy” (priority 2020, dated 2026) can be followed below.

In data set [1] the test system is influenza A virus A/PR/8/34 (H1N1). As to the kind of experiment: Influenza virus cytopathic effect (CPE) assay, A/PR/8/34 (H1N1). It counts as cell-based. Conditions: MDCK cells, 5 days, CCK8, read-out: EC50, inhibitory activity against influenza A virus A/PR/8/34 (H1N1). Background: Damage to the host cells serves as the signal in cytopathic effect assays.
Data set [2] is classed as in vivo. The conditions noted are these: Mouse, PO, 10 mpk of 8B; concentration of 7B detected. The method, then:
(§1) Experimental objectives: To evaluate the druggability of the compounds by measuring pharmacokinetic properties in different animal species.
(§2) Experimental materials: Sprague-Dawley strain rats, Beagle dogs, cynomolgus monkeys.
(§3) The animal pharmacokinetic properties of the compound after intravenous injection and oral administration were tested by standard protocols, in which the candidate compound was prepared as a clear solution (intravenous injection) or as a homogeneous suspension (oral administration), and administered as a single dose to the animals. The vehicles for intravenous injection and oral administration are dimethyl sulfoxide and polyethylene glycol (15)-hydroxystearate aqueous solution in certain proportions. Whole blood samples were collected within 24 hours, centrifuged at 3200 g for 10 minutes, and the supernatant was separated to obtain plasma samples. Quantitative analysis of plasma concentrations was performed by LC-MS/MS analysis method, and pharmacokinetic parameters such as peak concentration, peak time, clearance rate, half-life, and area under the drug-time curve were calculated.

The format of data set [3] is in vivo, Beagle dogs. The conditions noted are these: Dog, PO, 1 mpk of 8B; concentration of 7B detected. On the procedure: as §1, §2, §3
The format of data set [4] is in vivo, cynomolgus monkeys. More on the design: Tmax: unit not given here. The conditions noted are these: Monkey, PO, 1 mpk of 8B; concentration of 7B detected. The method, then: as §1, §2, §3
Data set [5] has as its system influenza A virus strain A/PR8/34. As to the kind of experiment: Drug efficacy assay in mice, treatment model of influenza A. Format: in vivo, mice (BALB/c). The conditions noted are these: 30 mpk BID intragastric, day 2 to day 8.

Like-named read-outs stand apart in the source and are kept apart here.

Regarding `CN1C(=O)c2c(O)c(=O)ccn2N2C1CCOc1cc(F)c(F)cc1[C@H]2c1ccccc1` (stereo partly shown) [Compound 1A], in data set [1] (Influenza A virus, 120 h), the EC50 is 22 nM.

Turning to `O=C1c2c(O)c(=O)ccn2N2C(CCOc3cc(F)c(F)cc3[C@H]2c2ccccc2)N1C1CCC1` (stereo partly shown) [Compound 2A], the EC50 in data set [1] (Influenza A virus, 120 h) was determined as 13 nM.

As to `O=C1c2c(O)c(=O)ccn2N2[C@H](c3ccccc3)c3ccccc3OCC[C@H]2N1C1CCC1` [Compound 3A], the EC50 in data set [1] is 37 nM.

Take `CC(C)N1C(=O)c2c(O)c(=O)ccn2N2C1CCOc1ccccc1[C@H]2c1ccccc1` (stereo partly shown) [Compound 4A]: the EC50 in data set [1] (Influenza A virus, 120 h) stood at 74 nM.

For orientation: AUC means concentration integrated over time. In general, Cmax refers to the maximum level reached in the sampled fluid or tissue. Regarding `COC(=O)OCOc1c2n(ccc1=O)N1[C@H](c3ccccc3)c3cc(F)c(F)cc3OCC[C@H]1N(C)C2=O` [Compound 8B], the AUC in data set [2] is 0.93 µM·h; in data set [3] it was 0.724 µM·h; in data set [4], 0.785 µM·h. The values for the Cmax in data set [2], in data set [3] and in data set [4] were 309 nM, 171 nM and 163 nM, respectively. The T1/2 was 1.3 h in data set [2], 4.4 h in data set [3] and 3.6 h in data set [4]. In addition, the Tmax amounted to 1.2 h in data set [2], 0.75 h in data set [3] and 3 in data set [4]. Also, the “Change in body weight (Percentage of starting body weight)” value in data set [5] (Day 3) is −6.6 ± 1.1 Percentage of starting body weight; in data set [5] (Day 4), −9.3 ± 0.8 Percentage of starting body weight; in data set [5] (Day 5), −8.9 ± 2.2 Percentage of starting body weight; in data set [5] (Day 6), −9.4 ± 1.9 Percentage of starting body weight; in data set [5] (Day 7), −7.7 ± 1.4 Percentage of starting body weight; in data set [5] (Day 8), −0.9 ± 0.8 Percentage of starting body weight. In addition, the “Change in body weight (Percentage of starting body weight)” value is −0.5 ± 1.1 Percentage of starting body weight in data set [5] (Day 9); 0.5 ± 0.6 Percentage of starting body weight in data set [5] (Day 10); 2.5 ± 0.6 Percentage of starting body weight in data set [5] (Day 11); 2.9 ± 1.0 Percentage of starting body weight in data set [5] (Day 12); 2.4 ± 1.3 Percentage of starting body weight in data set [5] (Day 13); 2.7 ± 1.4 Percentage of starting body weight in data set [5] (Day 14). Also, the Survival rate in data set [5] (Day 3), in data set [5] (Day 4), in data set [5] (Day 5), in data set [5] (Day 6), in data set [5] (Day 7) and in data set [5] (Day 8) was 100% throughout. The Survival rate in data set [5] (Day 9), in data set [5] (Day 10), in data set [5] (Day 11), in data set [5] (Day 12), in data set [5] (Day 13) and in data set [5] (Day 14) was 100% in each case.

Take `CN1C(=O)c2c(O)c(=O)ccn2N2C1CCOc1cc(F)c(F)cc1[C@H]2c1ccc(F)cc1` (stereo partly shown) [Compound 9A]: the EC50 in data set [1] (Influenza A virus, 120 h) was 34 nM.

Consider `CN1C(=O)c2c(O)c(=O)ccn2N2[C@H](c3ccccc3Br)c3cc(F)c(F)cc3OCC[C@@H]12` [Compound 18A], for which the EC50 in data set [1] (Influenza A virus, 120 h) amounted to 11 nM.

With `CN1C(=O)c2c(O)c(=O)ccn2N2[C@H](c3ccccc3)c3ccc(F)c(F)c3OCC[C@@H]12` [Compound 20A], the EC50 in data set [1] (Influenza A virus, 120 h) came out at 50 nM.
